Laboratory results published in patent US10202379B2, “Substituted polycyclic carbamoyl pyridone derivative prodrug” (priority 2010, dated 2019).
Read-outs that look alike come from different tables or passages of the source.

Assays:
[1] = biological target: Cap-dependant Endonuclease (CEN) (RNP fraction, PB1-PB2-PA complex) (Influenza A virus (strain A/Wilson-Smith/1933 H1N1) (Influenza A virus (strain A/WS/1933 H1N1)), UniProt P15659); type: biochemical, influenza A/WSN/33 virus
influenza virus = test: microbe, parasite or virus in culture; type: cell-based; conditions: MDBK or MDCK cells, 3 days, WST-8
[2] = parent compounds (Reference examples), room temperature, 60 minutes
[3] = unidentified influenza virus, 72 h, read-out: CPE EC50, parent compounds (Reference examples)

Structure (SMILES): C[C@@H](N1CN([C@H]2c3cc(F)ccc3CSc3c(Cl)cccc32)n2ccc(=O)c(O)c2C1=O)C(F)(F)F [Reference example 658]
- IC50 [1, 2]: 53 nM
- EC50 (influenza virus; [3]): 19 nM

Structure (SMILES): C[C@@H](N1CN([C@H]2c3cc(F)c(F)cc3CSc3ccccc32)n2ccc(=O)c(O)c2C1=O)C(F)(F)F [compound 668]
- IC50 [1]: 12.6 nM
- EC50 (influenza virus; [3]): 3.84 nM

Structure (SMILES): CC(=O)c1cn2c(c(O)c1=O)C(=O)N([C@H](C)C(F)(F)F)CN2[C@H]1c2cc(F)c(F)cc2CSc2ccccc21 [compound 692]
- IC50 [1, 2]: 36.9 nM
- EC50 (influenza virus; [3]): 9.64 nM

Structure (SMILES): COc1cccc2c1[C@H](N1CN([C@H](C)C(F)(F)F)C(=O)c3c(O)c(=O)ccn31)c1ccccc1SC2 [compound 728]
- IC50 [1, 2]: 74.7 nM
- EC50 (influenza virus; [3]): 4.32 nM

Structure (SMILES): C#Cc1cccc2c1[C@H](N1CN([C@H](C)C(F)(F)F)C(=O)c3c(O)c(=O)ccn31)c1ccccc1SC2 [compound 730]
- IC50 [1, 2]: 2.52 nM
- EC50 (influenza virus; [3]): 0.799 nM

Structure (SMILES): CC(C)N1C(=O)c2c(OCc3ccccc3)c(=O)ccn2N(C2c3ccccc3CCc3ccccc32)C1c1ccc(Cl)cc1 (stereo not drawn) [Reference example 527]
- IC50 [1]: 127 nM
- EC50 (influenza virus; parent compounds (Reference examples), read-out: CPE EC50): 88 nM

Structure (SMILES): Cc1cccc2c1CSc1c(F)cccc1[C@H]2N1CN([C@H](C)C(F)(F)F)C(=O)c2c(O)c(=O)ccn21 [Reference example 617]
- IC50 [1, 2]: 53 nM
- EC50 (influenza virus; [3]): 17 nM

Structure (SMILES): C[C@@H](N1CN([C@@H]2c3ccc(F)cc3SCc3cccc(Cl)c32)n2ccc(=O)c(O)c2C1=O)C(F)(F)F [compound 772]
- IC50 [1, 2]: 5.22 nM
- EC50 (influenza virus; [3]): 3.68 nM

Structure (SMILES): C[C@@H](N1CN([C@@H]2c3ccccc3SCc3cccc(C4CC4)c32)n2ccc(=O)c(O)c2C1=O)C(F)(F)F [compound 691]
- IC50 [1, 2]: 3.67 nM
- EC50 (influenza virus; [3]): 4.05 nM

Structure (SMILES): C[C@@H](N1CN([C@@H]2c3ccccc3SCc3c2ccc(F)c3F)n2ccc(=O)c(O)c2C1=O)C(F)(F)F [compound 711]
- IC50 [1]: 5.57 nM
- EC50 (influenza virus; [3]): 4.28 nM

Structure (SMILES): C[C@@H](N1CN([C@H]2c3ccccc3CCc3cccc(F)c32)n2ccc(=O)c(O)c2C1=O)C(F)(F)F [Reference example 633]
- IC50 [1, 2]: 53 nM
- EC50 (influenza virus; [3]): 22 nM

Structure (SMILES): N#CCN1CN(C(c2ccccc2)c2ccccc2)n2ccc(=O)c(O)c2C1=O [Reference example 574]
- IC50 [1, 2]: 165 nM
- EC50 (influenza virus; [3]): 442 nM

Structure (SMILES): CC(O)c1cn2c(c(O)c1=O)C(=O)N([C@H](C)C(F)(F)F)CN2[C@@H]1c2ccccc2SCc2cccc(Cl)c21 (stereo partly drawn) [compound 710]
- IC50 [1]: 20.6 nM
- EC50 (influenza virus; [3]): 9.81 nM

Structure (SMILES): C[C@@H](N1CN([C@@H]2c3ccccc3SCc3c(Cl)cccc32)n2cc(CO)c(=O)c(O)c2C1=O)C(F)(F)F [compound 719]
- IC50 [1, 2]: 2.6 nM
- EC50 (influenza virus; [3]): 8.36 nM

Structure (SMILES): C[C@@H](N1CN(C(c2ccccc2)c2ccc(Cl)cc2)n2ccc(=O)c(O)c2C1=O)C(F)(F)F (stereo partly drawn) [Reference example 650]
- IC50 [1, 2]: 219 nM
- EC50 (influenza virus; [3]): 103 nM

Structure (SMILES): COCC[C@@H]1N([C@H](C)C(F)(F)F)C(=O)c2c(O)c(=O)ccn2N1C1c2ccccc2CCc2ccccc21 [Reference example 645]
- IC50 [1, 2]: 105 nM
- EC50 (influenza virus; [3]): 16 nM

Structure (SMILES): C[C@@H](N1CN([C@@H]2c3cccc(F)c3SCc3cccc(F)c32)n2ccc(=O)c(O)c2C1=O)C(F)(F)F [Reference example 599]
- IC50 [1, 2]: 25 nM
- EC50 (influenza virus; [3]): 8 nM

Structure (SMILES): COC(=O)c1cn2c(c(O)c1=O)C(=O)N1CCCCN1C2C(c1ccccc1)c1ccccc1 (stereo not drawn) [Reference example 506]
- IC50 [1, 2]: 247 nM
- EC50 (influenza virus; [3]): 1620 nM

Structure (SMILES): Cc1cccc2c1CCc1c(C)cccc1C2N1CN([C@H](C)C(F)(F)F)C(=O)c2c(O)c(=O)ccn21 [Reference example 632]
- IC50 [1, 2]: 132 nM
- EC50 (influenza virus; [3]): 38 nM

Structure (SMILES): C#Cc1cccc2c1[C@H](N1CN([C@H](C)C(F)(F)F)C(=O)c3c(O)c(=O)ccn31)c1cccc(F)c1SC2 [compound 726]
- IC50 [1, 2]: 3.74 nM
- EC50 (influenza virus; [3]): 3.93 nM

Structure (SMILES): C[C@@H](N1CN([C@H]2c3cccc(F)c3SCc3cccc(Cl)c32)n2ccc(=O)c(O)c2C1=O)C(F)(F)F [Reference example 622]
- IC50 [1]: 89 nM
- EC50 (influenza virus; [3]): 12 nM

Structure (SMILES): Cc1cccc2c1[C@@H](N1CN([C@H](C)C(F)(F)F)C(=O)c3c(O)c(=O)ccn31)c1ccccc1SC2 [Reference example 662]
- IC50 [1, 2]: 316 nM
- EC50 (influenza virus; [3]): 22 nM

Structure (SMILES): C[C@@H](N1CN(C(c2ccccc2Cl)c2ccccc2Cl)n2ccc(=O)c(O)c2C1=O)C(F)(F)F [Reference example 648]
- IC50 [1, 2]: 132 nM
- EC50 (influenza virus; [3]): 59 nM

Structure (SMILES): C[C@@H](N1CN([C@@H]2c3cccc(F)c3SCc3cccc(Br)c32)n2ccc(=O)c(O)c2C1=O)C(F)(F)F [compound 771]
- IC50 [1, 2]: 5.89 nM
- EC50 (influenza virus; [3]): 4.05 nM

Structure (SMILES): C[C@@H](N1CN([C@H](c2ccccc2)c2ccccc2Cl)n2ccc(=O)c(O)c2C1=O)C(F)(F)F [Reference example 652]
- IC50 [1, 2]: 330 nM
- EC50 (influenza virus; [3]): 79 nM

Structure (SMILES): C[C@@H](N1CN([C@H]2c3ccccc3CSc3cccc(F)c32)n2ccc(=O)c(O)c2C1=O)C(F)(F)F [Reference example 603]
- IC50 [1, 2]: 37 nM
- EC50 (influenza virus; [3]): 15 nM

Structure (SMILES): C[C@@H](N1CN([C@H]2c3ccccc3CSc3ccccc32)n2cc(CO)c(=O)c(O)c2C1=O)C(F)(F)F [compound 712]
- IC50 [1, 2]: 16.4 nM
- EC50 (influenza virus; [3]): 6.45 nM

Structure (SMILES): C[C@@H](N1CN(C2c3cccc(F)c3CCc3c(F)cccc32)n2ccc(=O)c(O)c2C1=O)C(F)(F)F [Reference example 638]
- IC50 [1, 2]: 130 nM
- EC50 (influenza virus; [3]): 21 nM

Structure (SMILES): O=C1c2c(O)c(=O)ccn2N([C@@H]2c3ccccc3SCc3cccc(Cl)c32)[C@H]2COCCN12 [compound 682]
- IC50 [1, 2]: 19.7 nM
- EC50 (influenza virus; [3]): 3.5 nM

Structure (SMILES): C[C@@H](N1CN(C2c3ccc(F)cc3CCc3cc(F)ccc32)n2ccc(=O)c(O)c2C1=O)C(F)(F)F [Reference example 640]
- IC50 [1, 2]: 57 nM
- EC50 (influenza virus; [3]): 6 nM

Structure (SMILES): C[C@@H](N1CN([C@@H]2c3ccccc3SCc3cccc(C(F)(F)F)c32)n2ccc(=O)c(O)c2C1=O)C(F)(F)F [compound 741]
- IC50 [1, 2]: 21 nM
- EC50 (influenza virus; [3]): 3.51 nM

Structure (SMILES): C[C@@H](N1CN([C@H]2c3ccccc3CCc3c(F)cccc32)n2ccc(=O)c(O)c2C1=O)C(F)(F)F [Reference example 628]
- IC50 [1, 2]: 43 nM
- EC50 (influenza virus; [3]): 13 nM

Structure (SMILES): COCCCC1N(CC(F)(F)F)C(=O)c2c(O)c(=O)ccn2N1C1c2ccccc2CCc2ccccc21 (stereo not drawn) [Reference example 642]
- IC50 [1]: 256 nM
- EC50 (influenza virus; [3]): 94 nM

Structure (SMILES): COCCCC1N(CC(F)(F)F)C(=O)c2c(O)c(=O)ccn2N1C1c2ccc(F)cc2CCc2cc(F)ccc21 (stereo not drawn) [Reference example 643]
- IC50 [1, 2]: 163 nM
- EC50 (influenza virus; [3]): 132 nM

Structure (SMILES): C[C@@H](N1CN([C@@H]2c3cccc(Cl)c3SCc3cccc(F)c32)n2ccc(=O)c(O)c2C1=O)C(F)(F)F [Reference example 601]
- IC50 [1, 2]: 25 nM
- EC50 (influenza virus; [3]): 8 nM

Structure (SMILES): CCc1cccc2c1[C@H](N1CN([C@H](C)C(F)(F)F)C(=O)c3c(O)c(=O)ccn31)c1cccc(F)c1SC2 [compound 724]
- IC50 [1, 2]: 5.07 nM
- EC50 (influenza virus; [3]): 6.33 nM

Structure (SMILES): C[C@@H]1Sc2ccccc2[C@@H](N2CN([C@H](C)C(F)(F)F)C(=O)c3c(O)c(=O)ccn32)c2c(Cl)cccc21 [compound 748]
- IC50 [1, 2]: 24.2 nM
- EC50 (influenza virus; [3]): 9.14 nM

Structure (SMILES): Cc1cccc2c1[C@H](N1CN([C@H](C)C(F)(F)F)C(=O)c3c(O)c(=O)ccn31)c1ccccc1SC2 [Reference example 665]
- IC50 [1, 2]: 18 nM
- EC50 (influenza virus; [3]): 5 nM

Structure (SMILES): O=C1c2c(O)c(=O)ccn2N(C2c3ccccc3CSc3ccccc32)CN1Cc1ncns1 (stereo not drawn) [Reference example 316]
- IC50 [1, 2]: 69 nM
- EC50 (influenza virus; [3]): 83 nM
